Measured values: ChEMBL document CHEMBL1136449, “A new class of glycogen phosphorylase inhibitors” (Bioorg Med Chem Lett, 2003)

How the values were obtained:
[1] = biological target: T1, Glycogen phosphorylase, muscle form (Homo sapiens, UniProt P11217); assay: Inhibitory activity against HMGP(human muscle glycogen phosphorylase)
T1 sequence (P11217 whole entry): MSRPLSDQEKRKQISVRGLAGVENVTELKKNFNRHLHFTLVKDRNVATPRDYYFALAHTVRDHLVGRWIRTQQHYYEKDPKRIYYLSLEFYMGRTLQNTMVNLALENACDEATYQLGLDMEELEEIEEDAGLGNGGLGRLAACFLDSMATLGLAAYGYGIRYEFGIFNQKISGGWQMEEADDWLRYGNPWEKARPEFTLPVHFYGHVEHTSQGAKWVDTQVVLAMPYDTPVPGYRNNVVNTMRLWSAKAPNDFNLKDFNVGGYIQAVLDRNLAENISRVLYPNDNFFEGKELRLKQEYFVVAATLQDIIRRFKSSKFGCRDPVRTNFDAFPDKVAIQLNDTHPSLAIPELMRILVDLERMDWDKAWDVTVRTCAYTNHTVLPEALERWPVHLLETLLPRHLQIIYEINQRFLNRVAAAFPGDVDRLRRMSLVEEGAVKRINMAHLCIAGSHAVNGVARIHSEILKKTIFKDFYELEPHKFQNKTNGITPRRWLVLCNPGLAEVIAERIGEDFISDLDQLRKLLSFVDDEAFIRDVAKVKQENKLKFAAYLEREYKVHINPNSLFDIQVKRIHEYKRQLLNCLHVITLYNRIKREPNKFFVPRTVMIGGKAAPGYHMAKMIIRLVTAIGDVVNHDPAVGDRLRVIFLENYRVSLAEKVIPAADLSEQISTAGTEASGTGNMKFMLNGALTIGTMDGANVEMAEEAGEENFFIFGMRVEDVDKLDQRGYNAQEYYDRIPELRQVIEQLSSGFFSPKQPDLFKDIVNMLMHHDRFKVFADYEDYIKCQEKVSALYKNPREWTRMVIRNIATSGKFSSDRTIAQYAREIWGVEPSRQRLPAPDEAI

[2] = biological target: T2, Glycogen phosphorylase, liver form (Homo sapiens, UniProt P06737); assay: Inhibitory activity against HLGP(human liver glycogen phosphorylase)
T2 sequence (P06737 whole entry): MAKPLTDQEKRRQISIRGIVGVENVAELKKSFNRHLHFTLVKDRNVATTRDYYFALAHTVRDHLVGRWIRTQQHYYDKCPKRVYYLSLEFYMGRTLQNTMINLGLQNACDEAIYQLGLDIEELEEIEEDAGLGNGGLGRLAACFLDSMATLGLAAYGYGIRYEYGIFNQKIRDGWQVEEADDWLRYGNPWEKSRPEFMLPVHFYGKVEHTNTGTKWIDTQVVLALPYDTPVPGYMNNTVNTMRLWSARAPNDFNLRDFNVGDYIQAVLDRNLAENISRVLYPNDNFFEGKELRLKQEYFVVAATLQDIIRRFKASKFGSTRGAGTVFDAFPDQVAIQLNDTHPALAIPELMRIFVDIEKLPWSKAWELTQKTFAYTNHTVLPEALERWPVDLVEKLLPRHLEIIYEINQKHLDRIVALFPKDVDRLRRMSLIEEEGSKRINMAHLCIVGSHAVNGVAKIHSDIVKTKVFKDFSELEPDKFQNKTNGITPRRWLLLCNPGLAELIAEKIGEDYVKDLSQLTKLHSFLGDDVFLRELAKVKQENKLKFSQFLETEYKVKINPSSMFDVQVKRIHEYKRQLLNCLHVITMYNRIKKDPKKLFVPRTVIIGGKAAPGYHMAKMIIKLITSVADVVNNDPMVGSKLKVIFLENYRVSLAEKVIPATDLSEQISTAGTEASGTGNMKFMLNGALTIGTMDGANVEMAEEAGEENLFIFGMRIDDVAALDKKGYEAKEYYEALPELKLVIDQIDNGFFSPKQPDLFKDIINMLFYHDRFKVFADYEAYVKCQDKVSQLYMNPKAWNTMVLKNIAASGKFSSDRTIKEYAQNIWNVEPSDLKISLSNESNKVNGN

[3] = biological target: T3, Glycogen phosphorylase, liver form (Mus musculus, UniProt Q9ET01); assay: Inhibitory activity against mouse liver glycogen phosphorylase
T3 sequence (Q9ET01 whole entry): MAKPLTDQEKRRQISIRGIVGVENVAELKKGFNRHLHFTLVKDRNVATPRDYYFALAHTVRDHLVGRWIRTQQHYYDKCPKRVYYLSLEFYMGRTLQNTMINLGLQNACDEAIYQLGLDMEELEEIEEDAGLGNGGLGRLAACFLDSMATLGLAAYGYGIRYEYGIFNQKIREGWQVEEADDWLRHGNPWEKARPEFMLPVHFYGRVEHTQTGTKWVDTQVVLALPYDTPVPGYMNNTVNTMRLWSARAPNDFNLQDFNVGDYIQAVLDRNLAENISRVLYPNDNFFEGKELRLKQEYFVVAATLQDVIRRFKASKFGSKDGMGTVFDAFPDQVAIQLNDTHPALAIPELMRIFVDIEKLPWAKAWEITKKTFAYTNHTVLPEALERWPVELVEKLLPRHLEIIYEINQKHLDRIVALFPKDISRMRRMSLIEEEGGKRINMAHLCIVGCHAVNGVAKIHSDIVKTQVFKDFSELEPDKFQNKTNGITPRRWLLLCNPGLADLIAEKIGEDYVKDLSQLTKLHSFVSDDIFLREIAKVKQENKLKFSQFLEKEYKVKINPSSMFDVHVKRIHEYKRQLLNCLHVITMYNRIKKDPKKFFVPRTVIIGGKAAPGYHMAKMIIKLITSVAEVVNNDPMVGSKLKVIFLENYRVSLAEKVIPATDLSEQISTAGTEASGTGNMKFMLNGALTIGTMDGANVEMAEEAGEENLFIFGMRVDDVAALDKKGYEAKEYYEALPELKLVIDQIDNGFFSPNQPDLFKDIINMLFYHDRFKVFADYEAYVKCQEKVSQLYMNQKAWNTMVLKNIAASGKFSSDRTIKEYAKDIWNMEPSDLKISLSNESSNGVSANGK

[4] = biological target: T4, Glycogen phosphorylase, liver form (Rattus norvegicus, UniProt P09811); assay: Inhibitory activity against rat liver glycogen phosphorylase
T4 sequence (P09811 whole entry): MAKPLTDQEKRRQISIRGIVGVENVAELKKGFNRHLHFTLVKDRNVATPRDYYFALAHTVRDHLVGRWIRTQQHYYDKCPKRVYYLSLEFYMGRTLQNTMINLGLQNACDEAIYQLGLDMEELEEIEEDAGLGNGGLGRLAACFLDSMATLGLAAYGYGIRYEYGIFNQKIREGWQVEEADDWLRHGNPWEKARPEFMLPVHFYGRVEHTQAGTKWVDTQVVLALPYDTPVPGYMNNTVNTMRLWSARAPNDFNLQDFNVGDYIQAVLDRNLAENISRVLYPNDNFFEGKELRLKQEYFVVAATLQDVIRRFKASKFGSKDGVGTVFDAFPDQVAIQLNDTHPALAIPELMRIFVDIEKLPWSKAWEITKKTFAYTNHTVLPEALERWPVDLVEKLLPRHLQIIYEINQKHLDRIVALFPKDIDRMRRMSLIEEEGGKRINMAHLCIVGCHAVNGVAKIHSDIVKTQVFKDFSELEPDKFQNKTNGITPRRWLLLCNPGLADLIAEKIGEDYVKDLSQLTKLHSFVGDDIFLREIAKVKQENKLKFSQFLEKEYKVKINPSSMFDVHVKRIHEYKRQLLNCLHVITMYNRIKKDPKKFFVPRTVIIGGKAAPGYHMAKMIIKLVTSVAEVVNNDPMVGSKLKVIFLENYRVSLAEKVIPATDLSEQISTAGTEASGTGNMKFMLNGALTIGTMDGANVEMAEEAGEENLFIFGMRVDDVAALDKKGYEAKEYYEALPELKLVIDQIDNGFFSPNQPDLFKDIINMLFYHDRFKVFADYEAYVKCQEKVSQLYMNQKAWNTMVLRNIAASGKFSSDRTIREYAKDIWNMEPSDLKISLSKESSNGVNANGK

[5] = Cmax in male mice after 2 mg/kg oral dose; assay type: ADME, organism-based; parameters: dose 2 mg/kg, route oral; details: mouse, in vivo
[6] = Bioavailability in male mice, 2mg/kg oral and 1 mg/kg intravenous dose; assay type: ADME, organism-based; details: mouse, in vivo
[7] = Half-life in male mice after 1 mg/kg intravenous dose; assay type: ADME, organism-based; parameters: dose 1 mg/kg, route intravenous; details: mouse, in vivo

SMILES | IC50 [1] | IC50 [2] | IC50 [3] | IC50 [4] | Cmax [5] | bioavailability [6] | half-life [7]
O=C(Nc1cc(F)ccc1Oc1ccc(C(=O)O)c(C(=O)O)c1)c1cc(Cl)ccn1 | 647 nM | 78 nM | – | – | – | – | –
O=C(Nc1cc2ccccc2cc1Oc1ccc(C(=O)O)c(C(=O)O)c1)c1ccccc1 | 12300 nM | 2880 nM | – | – | – | – | –
COc1ccnc(C(=O)Nc2ccccc2Oc2ccc(C(=O)O)c(C(=O)O)c2)c1 | 200 nM | 20 nM | 18 nM | 24 nM | – | – | –
O=C(Nc1ccccc1Oc1ccc(C(=O)O)c(C(=O)O)c1)c1cc([N+](=O)[O-])ccn1 | 25 nM | 3 nM | – | – | – | – | –
N#Cc1ccnc(C(=O)Nc2ccccc2Oc2ccc(C(=O)O)c(C(=O)O)c2)c1 | 167 nM | 16 nM | 14 nM | 19 nM | – | – | –
O=C(Nc1ccccc1Oc1ccc(C(=O)O)c(C(=O)O)c1)c1cc(I)ccn1 | 468 nM | 39 nM | – | – | – | – | –
O=C(Nc1c(F)cccc1Oc1ccc(C(=O)O)c(C(=O)O)c1)c1cc(Cl)ccn1 | 60 nM | 10 nM | < 9 nM | < 9 nM | 44 nM | 4.1% | 60 min
O=C(Nc1cc2ccccc2cc1Oc1ccc(C(=O)O)c(C(=O)O)c1)c1ccccn1 | 844 nM | 167 nM | – | – | – | – | –
O=C(Nc1cc(F)ccc1Oc1ccc(C(=O)O)c(C(=O)O)c1)c1cc([N+](=O)[O-])ccn1 | 109 nM | 13 nM | – | – | – | – | –
CCc1ccnc(C(=O)Nc2cc3ccccc3cc2Oc2ccc(C(=O)O)c(C(=O)O)c2)c1 | 29 nM | 4 nM | – | – | – | – | –
COc1ccnc(C(=O)Nc2c(F)cccc2Oc2ccc(C(=O)O)c(C(=O)O)c2)c1 | 110 nM | 11 nM | – | – | – | – | –
O=C(Nc1c(F)cccc1Oc1ccc(C(=O)O)c(C(=O)O)c1)c1cccc([N+](=O)[O-])c1 | 1860 nM | 250 nM | 207 nM | 302 nM | – | – | –
O=C(Nc1cc2ccccc2cc1Oc1ccc(C(=O)O)c(C(=O)O)c1)c1cc(Cl)ccn1 | 12 nM | 2 nM | – | – | – | – | –
O=C(Nc1c(F)cccc1Oc1ccc(C(=O)O)c(C(=O)O)c1)c1cc([N+](=O)[O-])ccn1 | 9 nM | 1 nM | – | – | – | – | –
Cc1ccnc(C(=O)Nc2cc3ccccc3cc2Oc2ccc(C(=O)O)c(C(=O)O)c2)c1 | 57 nM | 10 nM | – | – | – | – | –
O=C(Nc1ccccc1Oc1ccc(C(=O)O)c(C(=O)O)c1)c1cc(Cl)ccn1 | 181 nM | 17 nM | 14 nM | 16 nM | – | – | –
O=C(Nc1cc2ccccc2cc1Oc1ccc(C(=O)O)c(C(=O)O)c1)c1cc([N+](=O)[O-])ccn1 | 3 nM | 1 nM | – | – | – | – | –
O=C(Nc1cc2ccccc2cc1Oc1ccc(C(=O)O)c(C(=O)O)c1)c1cc(C(F)(F)F)ccn1 | 80 nM | 12 nM | – | – | – | – | –
COc1ccnc(C(=O)Nc2cc3ccccc3cc2Oc2ccc(C(=O)O)c(C(=O)O)c2)c1 | 12 nM | 2 nM | – | – | – | – | –
O=C(Nc1cc2ccccc2cc1Oc1ccc(C(=O)O)c(C(=O)O)c1)c1cccc([N+](=O)[O-])c1 | 140 nM | 23 nM | – | – | – | – | –
